For series [1] the following is noted: topical 0.5% hematoporphyrin and UVA three times a week for eight weeks; first week of treatment; cited from earlier work.
The subject of series [2] is human males with type II or III Vertex alopecia. Nature of the series: Terminal hair counts 3 months after single topical PDT treatment, compared to baseline. It is filed as in vivo. The following applies: 3 months after treatment vs baseline, 5 subjects. An excerpt:
As used herein, the term “hair growth” refers to an increase in number of terminal hairs present. Terminal hair counts can be conducted in a number of ways. For example, the terminal hair can be counted by trained and validated technicians who perform a computer-assisted count on macrophotographs. In brief, a target area on the scalp is chosen, the hair clipped and the scalp permanently marked with a single dot tattoo in the center in order to facilitate the exact positioning at each subsequent photo session. The macrophotography is performed using a preset camera with a macro lens and a stand that provides a constant reproduction ratio and electronic flashes that reproducibly illuminate the area to photograph. The images are taken in triplicate, centering the camera using the tattoo and the color slide films are processed at a central facility. The quality of the images is assessed and large transparencies are made of the best images. The terminal hairs on the target circle of the transparencies are then counted by the trained technicians.
A total of 10 subjects were treated. All subjects were human males over 18 years of age and had type II or III Vertex alopecia, rated according to the modified Hamilton-Norwood scale. […]
The efficacy was assessed by hair counts 3 months after the treatment and compared to baseline counts.

A short description of series [3]: Safety: monitoring all adverse events during and after the PDT treatment. The format is in vivo, human. The conditions noted are these: single topical QLT0074 ointment 0.2% w/w plus 50 or 75 J/cm^2 red light; 10 subjects. How it is done: A total of 10 subjects were treated. All subjects were human males over 18 years of age and had type II or III Vertex alopecia, rated according to the modified Hamilton-Norwood scale.
All subjects received a single application of topical QLT0074 ointment 0.2% weight in weight (w/w) to two of three circular test sites on the vertex area of the scalp. The amount of ointment applied to each test site was approximately 224 mg (about 0.44mg of photosensitizer per test site). After 2 hours the excess drug was removed and red light (LED's—690nm) was administered to two of the three sites. The other test site served as a control with no drug or light administration.
Two light dose cohorts (50 and 75 J/cm^2) were investigated with each cohort having 5 subjects.
Safety was assessed by monitoring all adverse events during and after the treatment.

In the next series the test system is alopecia areata. The conditions noted are these: cited from earlier work.

As to `CC1=C(CCC(=O)O)c2cc3[nH]c(cc4nc(cc5[nH]c(cc1n2)c(C)c5C(C)O)C(C)=C4C(C)O)c(C)c3CCC(=O)O` (stereo not drawn) [hematoporphyrin], in series [1], the “skin reactions at treated sites” value is “significant erythema and mild scaling followed by hyperpigmentation”.
For the compound `C=Cc1c(C)c2cc3nc(cc4[nH]c(cc5nc(cc1[nH]2)C(C)=C5CCC(=O)OCCO)c(CCC(=O)OCCO)c4C)[C@@]1(C)C3=CC=C(C(=O)OC)[C@H]1C(=O)OC` [QLT0074], the “% change in terminal hair count” value was “+8%” in series [2] (50 J/cm^2 red light (690nm) 2 hours after topical QLT0074 ointment 0.2% w/w) and “+4%” in series [2] (75 J/cm^2 red light (690nm) 2 hours after topical QLT0074 ointment 0.2% w/w). Further, the serious adverse events entry in series [3] is recorded as “No serious adverse events were reported”.
For the compound `COc1c2occc2c(OC)c2c(=O)cc(C)oc12` [khellin], the patients treated successfully in the series with alopecia areata (2% khellin and UVA, alopecia areata) is reported as 5 of the 10. For the same compound, the phototoxicity entry in the series on alopecia areata (khellin and UVA) is “did not cause phototoxicity”.

Values taken from patent US20060265028A1, “Hair growth” (QLT INC., priority 2003, published 2006).
